Data: patent publication US20250221966A1, “RXFP1 AGONISTS” (BRISTOL-MYERS SQUIBB COMPANY, priority 2021, published 2025)

Biological target: T1, human RXFP1 (Homo sapiens, UniProt Q9HBX9)
T1 construct: expressed in transfected cells
T1 sequence (Q9HBX9 1-757): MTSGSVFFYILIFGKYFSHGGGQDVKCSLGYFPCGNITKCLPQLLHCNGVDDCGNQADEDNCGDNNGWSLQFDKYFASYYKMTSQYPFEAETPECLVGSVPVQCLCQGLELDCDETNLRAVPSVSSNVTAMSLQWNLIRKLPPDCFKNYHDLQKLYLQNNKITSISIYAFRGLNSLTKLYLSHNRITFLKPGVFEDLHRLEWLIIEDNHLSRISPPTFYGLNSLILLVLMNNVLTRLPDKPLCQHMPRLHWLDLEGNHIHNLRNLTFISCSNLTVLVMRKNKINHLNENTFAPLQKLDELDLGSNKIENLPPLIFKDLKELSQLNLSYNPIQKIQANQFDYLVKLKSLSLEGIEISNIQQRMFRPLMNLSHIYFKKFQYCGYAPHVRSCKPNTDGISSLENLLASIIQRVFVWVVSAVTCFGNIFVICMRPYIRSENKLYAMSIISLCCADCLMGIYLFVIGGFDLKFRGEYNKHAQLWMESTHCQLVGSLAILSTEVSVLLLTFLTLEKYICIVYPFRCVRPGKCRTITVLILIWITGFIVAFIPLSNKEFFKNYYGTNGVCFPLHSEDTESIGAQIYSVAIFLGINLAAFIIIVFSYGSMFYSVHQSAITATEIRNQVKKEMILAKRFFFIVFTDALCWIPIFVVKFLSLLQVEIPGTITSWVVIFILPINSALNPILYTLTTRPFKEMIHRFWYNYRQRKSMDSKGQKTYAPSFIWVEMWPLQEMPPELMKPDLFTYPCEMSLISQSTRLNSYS
Assay: RXFP1 cAMP assay (hRXFP1 HEK293 cAMP assay, HTRF)
Format: cell-based
Conditions: HEK293 cells stably expressing human RXFP1, 30 min at room temperature, read-out: cAMP hRXFP1 HEK293 Assay EC50
Outline: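 HEK293 cells stably expressing human RXFP1 were suspended in HBSS (Ca/Mg) with 20 mM HEPES, 0.05% BSA and 0.5 mM IBMX, then treated with compounds (0.010 nM–50 μM, 2% DMSO final) for 30 min at room temperature. Intracellular cAMP was measured by HTRF, and potency was derived from 4-parameter logistic fits.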

| Structure (SMILES) | EC50 |
| --- | --- |
| COc1ccc(C#N)cc1C(=O)N[C@@H]1C2CCC(/C2=C/c2ccccc2)[C@@H]1C(=O)Nc1ccc(F)c(C(F)(F)F)c1 (stereo partly shown) [compound 128] | 55 nM |
| COc1ccc(C2=NOC(CO)C2)cc1C(=O)N[C@H]1[C@@H](C(=O)Nc2ccc(F)c(C(F)(F)F)c2)[C@H]2CC[C@@H]1/C2=C\C1CCC1 (mixture of isomers) [Example 378, (1R,2S,3R,4R,Z)-7-(cyclobutylmethylene)-N-(4-fluoro-3-(trifluoromethyl)phenyl)-3-(5-(5-(hydroxymethyl)-4,5-dihydroisoxazol-3-yl)-2-methoxybenzamido)bicyclo[2.2.1]heptane-2-carboxamide] | 16 nM |
| COc1ccc(C2=NOC3CC(C(C)O)CC23)cc1C(=O)N[C@H]1[C@@H](C(=O)Nc2ccc(F)c(C(F)(F)F)c2)[C@H]2CC[C@@H]1/C2=C\C1CC1 (stereo partly shown) [compound 844] | 1.2 nM |
| COC(=O)c1cnn2cc(-c3ccc(OC)c(C(=O)N[C@@H]4C5CCC(/C5=C/C(F)(F)F)[C@@H]4C(=O)Nc4ccc(F)c(C(F)(F)F)c4)c3)ccc12 (stereo partly shown) [compound 313] | 90 nM |
| COc1ccc(-c2cc(C3=NOC(C(=O)O)C3)ccc2F)cc1C(=O)N[C@H]1[C@@H](C(=O)Nc2ccc(F)c(C(F)(F)F)c2)[C@H]2CC[C@@H]1/C2=C\C1CCCC1 (stereo partly shown) [compound 913] | 9 nM |
| COc1ccc(C2=NOC3(CO)CCCC23)cc1C(=O)N[C@H]1[C@@H](C(=O)Nc2ccc(F)c(C(F)(F)F)c2)[C@H]2CC[C@@H]1/C2=C\C1CC1 (single isomer, unassigned) [compound 548] | 32.6 nM |
| COc1ccc(-c2cc(C(C)OC(=O)Nc3ccccc3)ccc2F)cc1C(=O)N[C@H]1[C@@H](C(=O)Nc2ccc(F)c(C(F)(F)F)c2)[C@H]2CC[C@@H]1/C2=C\C1CC1 (stereo partly drawn) [Example 222, 1-(3′-(((1R,2R,3S,4R,Z)-7-(cyclopropylmethylene)-3-((4-fluoro-3-(trifluoromethyl)phenyl)carbamoyl)bicyclo[2.2.1]heptan-2-yl)carbamoyl)-6-fluoro-4′-methoxy-[1,1′-biphenyl]-3-yl)ethyl phenylcarbamate] | 1 nM |
| COc1ccc(C2=NOC3CC(CO)CC23)cc1C(=O)N[C@@H]1C2CCC(/C2=C/C2CC2)[C@@H]1C(=O)Nc1ccc(F)c(C(F)(F)F)c1 (single isomer, unassigned) [Example 430] | 194 nM |
| COc1ccc(C2=NOC3CC(C(O)C(F)(F)F)CC23)cc1C(=O)N[C@H]1[C@@H](C(=O)Nc2ccc(F)c(C(F)(F)F)c2)[C@H]2CC[C@@H]1/C2=C\C1CC1 (single isomer, unassigned) [Example 489] | 8.5 nM |
| O=C(O)c1ccc(F)c(-c2ccc(OCCO)c(C(=O)N[C@@H]3C4CCC(/C4=C/C(F)(F)F)[C@@H]3C(=O)Nc3ccc(F)c(C(F)(F)F)c3)c2)c1 (stereo partly shown) [compound 321] | 91 nM |
| COc1ccc(C2=NOC(C(=O)O)C2)cc1C(=O)N[C@H]1[C@@H](C(=O)Nc2ccc(F)c(C(F)(F)F)c2)[C@H]2CC[C@@H]1/C2=C\C1CC1 (mixture of isomers) [Example 384, 3-(3-(((1R,2R,3S,4R,Z)-7-(cyclopropylmethylene)-3-((4-fluoro-3-(trifluoromethyl)phenyl)carbamoyl)bicyclo[2.2.1]heptan-2-yl)carbamoyl)-4-methoxyphenyl)-4,5-dihydroisoxazole-5-carboxylic acid] | 123 nM |
| COc1cc(F)c(F)cc1C(=O)N[C@@H]1C2CCC(/C2=C/c2ccccc2F)[C@@H]1C(=O)Nc1ccc(F)c(C(F)(F)F)c1 (stereo partly shown) [compound 54] | 160 nM |
| COc1ccc(C2=NOC3COCC23)cc1C(=O)N[C@H]1[C@@H](C(=O)NCC2(C)CCC2)[C@H]2CC[C@@H]1/C2=C\C1CC1 (stereo partly shown) [compound 477] | 6.4 nM |
| COc1ccc(-c2cc([C@H](OC(=O)NC3CCC3)C(F)(F)F)ccc2F)cc1C(=O)N[C@@H]1C2CCC(/C2=C/C2CCCC2)[C@@H]1C(=O)Nc1ccc(F)c(C(F)(F)F)c1 (stereo partly shown) [compound 922] | 2.2 nM |
| COc1ccc(-c2cn(C)nc2C)cc1C(=O)N[C@H]1[C@@H](C(=O)Nc2ccc(F)c(C(F)(F)F)c2)[C@H]2CC[C@@H]1C2=C(C)C [compound 92] | 380 nM |
| COc1ccc(C2=NOC3CC(CO)CC23)cc1C(=O)N[C@H]1[C@@H](C(=O)Nc2ccc(F)c(C(F)(F)F)c2)[C@H]2CC[C@@H]1/C2=C\c1cncs1 (stereo partly shown) [compound 803] | 3.5 nM |
| COc1ccc(-c2cc(CC(=O)O)ccc2F)cc1C(=O)N[C@@H]1C2CCC(C2=C(C)C)[C@@H]1C(=O)Nc1ccc(F)c(C(F)(F)F)c1 (stereo partly shown) [compound 155] | 87 nM |
| COc1ccc(C2=NOC(COCCO)C2)cc1C(=O)N[C@H]1[C@@H](C(=O)Nc2ccc(F)c(C(F)(F)F)c2)[C@H]2CC[C@@H]1/C2=C\C1CC1 (stereo partly shown) [compound 546] | 32.1 nM |
| COc1ncc(-c2ccc(OC)c(C(=O)N[C@H]3[C@@H](C(=O)Nc4ccc(F)c(C(F)(F)F)c4)[C@H]4CC[C@@H]3C4=C(C)C)c2)cn1 [compound 88] | 190 nM |
| COc1ccc(-c2cccnc2)cc1C(=O)N[C@H]1[C@@H](C(=O)Nc2ccc(F)c(C(F)(F)F)c2)[C@H]2CC[C@@H]1/C2=C\C(F)(F)F [Example 310, (1R,2S,3R,4R,Z)—N-(4-fluoro-3-(trifluoromethyl)phenyl)-3-(2-methoxy-5-(pyridin-3-yl)benzamido)-7-(2,2,2-trifluoroethylidene)bicyclo[2.2.1]heptane-2-carboxamide] | 162 nM |
| COc1ccc(-c2cc(C(=O)O)ccc2F)cc1C(=O)N[C@@H]1C2CCC(/C2=C/C2CC2)[C@@H]1C(=O)N[C@H](C)c1ccccc1 (stereo partly shown) [compound 261] | 1880 nM |
| COc1ccc(-c2cccc3c2ccn3C(=O)OC(C)(C)C)cc1C(=O)N[C@H]1[C@@H](C(=O)Nc2ccc(F)c(C(F)(F)F)c2)[C@H]2CC[C@@H]1/C2=C\C1CC1 [compound 880] | 1.6 nM |
| CCO/N=C1\C2CCC1[C@H](C(=O)Nc1ccc(F)c(C(F)(F)F)c1)[C@@H]2NC(=O)c1cc(F)c(F)cc1OC (stereo partly shown) [compound 133] | 1700 nM |
| COc1ccc(C2=NOC(C(=O)O)(C(C)(C)C)C2)cc1C(=O)N[C@H]1[C@@H](C(=O)Nc2ccc(F)c(C(F)(F)F)c2)[C@H]2CC[C@@H]1/C2=C\C(F)(F)F (stereo partly drawn) [Example 397, 5-(tert-butyl)-3-(3-(((1R,2R,3S,4R,Z)-3-((4-fluoro-3-(trifluoromethyl)phenyl)carbamoyl)-7-(2,2,2-trifluoroethylidene)bicyclo[2.2.1]heptan-2-yl)carbamoyl)-4-methoxyphenyl)-4,5-dihydroisoxazole-5-carboxylic acid] | 912 nM |
| COc1ccc(-c2cc(C(COC(=O)NC3CCC3)C(F)(F)F)ccc2F)cc1C(=O)N[C@H]1[C@@H](C(=O)Nc2ccc(F)c(C(F)(F)F)c2)[C@H]2CC[C@@H]1/C2=C\C1CC1 (stereo partly shown) [compound 878] | 5.1 nM |
| COc1cc(F)c(F)cc1C(=O)N[C@@H]1C2CCC(/C2=C/c2cccc(C)c2)[C@@H]1C(=O)Nc1ccc(F)c(C(F)(F)F)c1 (stereo partly shown) [compound 24] | 94 nM |
| COCC1(CNC(=O)[C@@H]2[C@H](NC(=O)c3cc(C4=NOC5COCC45)ccc3OC)[C@@H]3CC[C@H]2/C3=C/C2CC2)CC1 (stereo partly shown) [compound 701] | 1090 nM |
| CC(C)=C1C2CCC1[C@H](C(=O)Nc1ccc(F)c(C(F)(F)F)c1)[C@@H]2NC(=O)c1ccccc1OC(C)C (stereo partly shown) [compound 115] | 1100 nM |
